Assays:
[1] = target: Tyrosine-protein kinase Yes (Homo sapiens, UniProt P07947); test: Inhibition of YES1 (unknown origin)
Homo sapiens [2] = species: Homo sapiens; test: Selectivity ratio of IC50 for YES1 (unknown origin) to IC50 for BTK (unknown origin)
[3] = target: T1, Tyrosine-protein kinase Tec (Homo sapiens, UniProt P42680); test: Inhibition of TEC (unknown origin)
T1 sequence (P42680 whole entry): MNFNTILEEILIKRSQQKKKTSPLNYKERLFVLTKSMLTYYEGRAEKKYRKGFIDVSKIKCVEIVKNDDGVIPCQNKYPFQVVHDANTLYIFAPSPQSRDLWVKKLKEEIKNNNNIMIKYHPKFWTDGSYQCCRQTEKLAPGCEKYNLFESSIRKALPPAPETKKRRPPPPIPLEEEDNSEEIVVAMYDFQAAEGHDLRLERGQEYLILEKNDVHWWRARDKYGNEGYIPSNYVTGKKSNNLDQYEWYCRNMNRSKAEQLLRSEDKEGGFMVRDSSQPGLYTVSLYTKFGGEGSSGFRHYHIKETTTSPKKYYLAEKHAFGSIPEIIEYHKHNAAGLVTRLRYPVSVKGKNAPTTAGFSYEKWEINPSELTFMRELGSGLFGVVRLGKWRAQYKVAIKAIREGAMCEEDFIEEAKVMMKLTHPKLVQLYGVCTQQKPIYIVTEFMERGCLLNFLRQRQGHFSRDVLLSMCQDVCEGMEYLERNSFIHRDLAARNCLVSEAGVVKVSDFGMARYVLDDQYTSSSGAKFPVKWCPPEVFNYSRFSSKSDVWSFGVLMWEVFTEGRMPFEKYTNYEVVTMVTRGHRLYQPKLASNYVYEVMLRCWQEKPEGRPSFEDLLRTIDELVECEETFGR

[4] = Oral bioavailability in dog at 2 mg/kg; type: ADME, organism-based, Canis lupus familiaris; settings: in vivo
[5] = target: Tyrosine-protein kinase Lck (Homo sapiens, UniProt P06239); test: Inhibition of LCK (unknown origin)
[6] = target: Tyrosine-protein kinase Fgr (Homo sapiens, UniProt P09769); test: Inhibition of FGR (unknown origin)
[7] = Total clearance in dog plasma at 2 mg/kg; type: ADME, organism-based, Canis lupus familiaris
Homo sapiens [8] = species: Homo sapiens; test: Selectivity ratio of IC50 for ERBB4 (unknown origin) to IC50 for BTK (unknown origin)
Homo sapiens [9] = species: Homo sapiens; test: Selectivity ratio of IC50 for FYN (unknown origin) to IC50 for BTK (unknown origin)
[10] = Half life in dog at 2 mg/kg; type: ADME, organism-based, Canis lupus familiaris; settings: in vivo
Homo sapiens [11] = species: Homo sapiens; test: Selectivity ratio of IC50 for SRMS (unknown origin) to IC50 for BTK (unknown origin)
Homo sapiens [12] = species: Homo sapiens; test: Selectivity ratio of IC50 for TEC (unknown origin) to IC50 for BTK (unknown origin)
Homo sapiens [13] = species: Homo sapiens; test: Selectivity ratio of IC50 for FGR (unknown origin) to IC50 for BTK (unknown origin)
[14] = target: Tyrosine-protein kinase Blk (Homo sapiens, UniProt P51451); test: Inhibition of BLK (unknown origin)
[15] = target: Tyrosine-protein kinase Fyn (Homo sapiens, UniProt P06241); test: Inhibition of FYN (unknown origin)
Sequence of Tyrosine-protein kinase Fyn (P06241 whole entry): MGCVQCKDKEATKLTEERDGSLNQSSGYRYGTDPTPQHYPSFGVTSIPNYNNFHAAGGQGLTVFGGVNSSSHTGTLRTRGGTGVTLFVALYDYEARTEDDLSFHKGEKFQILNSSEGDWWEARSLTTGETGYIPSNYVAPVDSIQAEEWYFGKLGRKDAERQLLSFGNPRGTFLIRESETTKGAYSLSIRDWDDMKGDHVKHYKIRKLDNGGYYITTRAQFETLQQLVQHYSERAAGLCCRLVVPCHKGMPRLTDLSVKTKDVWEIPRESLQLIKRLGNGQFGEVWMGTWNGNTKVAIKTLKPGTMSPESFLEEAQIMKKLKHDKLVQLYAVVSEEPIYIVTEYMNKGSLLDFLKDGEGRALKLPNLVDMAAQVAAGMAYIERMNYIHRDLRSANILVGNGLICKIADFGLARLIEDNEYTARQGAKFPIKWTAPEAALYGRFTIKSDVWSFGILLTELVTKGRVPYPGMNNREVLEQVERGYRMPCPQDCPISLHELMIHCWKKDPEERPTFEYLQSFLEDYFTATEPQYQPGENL

Sequence of Tyrosine-protein kinase Fgr (P09769 whole entry): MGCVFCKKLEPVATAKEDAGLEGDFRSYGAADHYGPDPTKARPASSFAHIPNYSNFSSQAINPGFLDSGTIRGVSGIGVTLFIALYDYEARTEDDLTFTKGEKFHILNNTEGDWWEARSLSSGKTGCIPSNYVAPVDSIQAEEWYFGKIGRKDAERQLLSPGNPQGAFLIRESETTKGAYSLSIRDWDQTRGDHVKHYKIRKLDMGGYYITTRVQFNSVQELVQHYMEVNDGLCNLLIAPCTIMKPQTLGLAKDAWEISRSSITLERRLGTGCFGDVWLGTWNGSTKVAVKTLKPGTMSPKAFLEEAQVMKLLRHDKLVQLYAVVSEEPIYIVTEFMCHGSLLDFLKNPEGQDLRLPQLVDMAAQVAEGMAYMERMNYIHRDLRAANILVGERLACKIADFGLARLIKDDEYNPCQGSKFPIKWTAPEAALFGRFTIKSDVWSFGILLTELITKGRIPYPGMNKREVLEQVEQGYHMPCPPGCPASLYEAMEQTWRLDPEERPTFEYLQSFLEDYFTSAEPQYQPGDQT
Sequence of Tyrosine-protein kinase Yes (P07947 whole entry): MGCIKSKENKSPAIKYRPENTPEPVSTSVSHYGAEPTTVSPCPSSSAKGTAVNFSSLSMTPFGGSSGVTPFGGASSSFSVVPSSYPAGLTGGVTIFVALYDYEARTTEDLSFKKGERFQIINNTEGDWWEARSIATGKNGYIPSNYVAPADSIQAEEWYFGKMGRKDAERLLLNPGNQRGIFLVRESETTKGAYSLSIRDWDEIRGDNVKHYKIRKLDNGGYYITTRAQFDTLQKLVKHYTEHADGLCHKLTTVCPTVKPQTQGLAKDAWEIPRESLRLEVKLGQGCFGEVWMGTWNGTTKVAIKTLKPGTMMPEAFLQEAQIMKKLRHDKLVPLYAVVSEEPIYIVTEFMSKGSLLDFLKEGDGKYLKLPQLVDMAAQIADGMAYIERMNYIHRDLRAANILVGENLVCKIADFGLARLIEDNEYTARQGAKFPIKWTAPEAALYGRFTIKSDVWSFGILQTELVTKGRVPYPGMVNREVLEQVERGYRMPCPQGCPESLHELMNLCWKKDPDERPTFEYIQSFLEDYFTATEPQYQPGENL
Sequence of Tyrosine-protein kinase Lck (P06239 whole entry): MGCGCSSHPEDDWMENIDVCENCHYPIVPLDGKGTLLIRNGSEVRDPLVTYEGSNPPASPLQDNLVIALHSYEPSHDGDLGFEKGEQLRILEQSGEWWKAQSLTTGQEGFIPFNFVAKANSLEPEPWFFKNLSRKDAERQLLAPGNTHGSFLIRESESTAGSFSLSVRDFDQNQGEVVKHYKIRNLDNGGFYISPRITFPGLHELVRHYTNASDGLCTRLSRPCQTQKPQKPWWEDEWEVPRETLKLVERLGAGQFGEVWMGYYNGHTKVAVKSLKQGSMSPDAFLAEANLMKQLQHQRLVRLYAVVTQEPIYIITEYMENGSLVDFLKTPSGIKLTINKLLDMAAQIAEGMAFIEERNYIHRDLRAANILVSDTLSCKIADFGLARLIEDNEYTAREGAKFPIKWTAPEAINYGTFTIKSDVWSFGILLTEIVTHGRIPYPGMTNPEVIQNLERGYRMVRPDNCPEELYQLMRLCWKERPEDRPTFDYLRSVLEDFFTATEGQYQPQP
Sequence of Tyrosine-protein kinase Blk (P51451 whole entry): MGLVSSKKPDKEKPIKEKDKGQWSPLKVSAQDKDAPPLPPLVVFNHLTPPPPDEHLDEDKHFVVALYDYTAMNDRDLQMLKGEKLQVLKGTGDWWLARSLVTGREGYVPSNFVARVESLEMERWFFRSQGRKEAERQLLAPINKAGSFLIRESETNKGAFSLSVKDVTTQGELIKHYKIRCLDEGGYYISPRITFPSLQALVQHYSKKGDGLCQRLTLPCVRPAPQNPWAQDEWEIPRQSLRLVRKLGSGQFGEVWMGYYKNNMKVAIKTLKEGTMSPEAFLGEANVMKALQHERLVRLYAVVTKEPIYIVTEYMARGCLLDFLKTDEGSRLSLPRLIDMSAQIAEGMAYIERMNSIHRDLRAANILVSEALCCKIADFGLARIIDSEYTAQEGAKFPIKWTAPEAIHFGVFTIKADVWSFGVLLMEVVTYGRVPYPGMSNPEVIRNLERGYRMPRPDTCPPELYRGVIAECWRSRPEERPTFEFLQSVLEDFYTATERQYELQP

IC50 [1]: 266 nM
Ratio IC50 (Homo sapiens [2]): 605
IC50 [3]: 428 nM
bioavailability [4]: 89%
IC50 [5]: 100 nM
IC50 [6]: 268 nM
clearance [7]: 4.8 mL/min/kg
Ratio IC50 (Homo sapiens [8]): 1170
Ratio IC50 (Homo sapiens [9]): 4330
half-life [10]: 3.9 h
Ratio IC50 (Homo sapiens [11]): 234
Ratio IC50 (Homo sapiens [12]): 973
Ratio IC50 (Homo sapiens [13]): 610
IC50 [14]: 280 nM
IC50 [15]: 1900 nM
SMILES: CC(C)C(=O)N1CCO[C@@H](c2nc(-c3ccc(C(=O)Nc4cc(C(F)(F)F)ccn4)cc3F)c3c(N)nccn23)C1

Source: ChEMBL document CHEMBL4052776, “Discovery of 3-morpholino-imidazole[1,5-a]pyrazine BTK inhibitors for rheumatoid arthritis” (Bioorg Med Chem Lett, 2017)
